Broadly, the Ki is the equilibrium dissociation constant of an inhibitor or competing ligand from its target.

For 21 compounds, Ki results are on record in US7189720B2 (H. Lundbeck A/S, priority 1999, dated 2007).

Test [1] concerns the target T1, human Y2 receptor (Homo sapiens, UniProt P49146).
T1 sequence (P49146 1-381): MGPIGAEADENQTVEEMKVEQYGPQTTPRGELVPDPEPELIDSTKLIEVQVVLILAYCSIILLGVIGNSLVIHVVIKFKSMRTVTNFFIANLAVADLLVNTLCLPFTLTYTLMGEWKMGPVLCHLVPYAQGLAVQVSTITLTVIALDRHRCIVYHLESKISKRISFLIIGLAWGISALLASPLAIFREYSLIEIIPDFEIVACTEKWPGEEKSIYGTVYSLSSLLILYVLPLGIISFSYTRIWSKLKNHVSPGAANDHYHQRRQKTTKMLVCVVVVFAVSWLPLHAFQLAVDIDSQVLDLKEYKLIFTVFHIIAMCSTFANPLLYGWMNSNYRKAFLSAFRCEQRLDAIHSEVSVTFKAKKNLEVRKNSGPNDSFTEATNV
In words: Radioligand binding to membranes, cloned human Y2 receptor.
Procedure: (§1) Binding of the compounds of the present invention to human Y1, Y2, Y4, and Y5 receptors was evaluated using stably transfected 293 or LM(tk-) cells as described above.
(§2) Membranes were harvested from COS-7 cells 48 hours after transient transfection. Adherent cells were washed twice in ice-cold phosphate buffered saline (138 mM NaCl, 8.1 mM Na2HPO4, 2.5 mM KCl, 1.2 mM KH2PO4, 0.9 mM CaCl2, 0.5 mM MgCl2, pH 7.4) and lysed by sonication in ice-cold sonication buffer (20 mM Tris-HCl, 5 mM EDTA, pH 7.7). Large particles and debris were cleared by low speed centrifugation (200×g, 5 min, 4° C.). Membranes were collected from the supernatant fraction by centrifugation (32,000×g, 18 min, 4° C.), washed with ice-cold hypotonic buffer, and collected again by centrifugation (32,000×g, 18 min, 4° C.). The final membrane pellet was resuspended by sonication into a small volume of ice-cold binding buffer (˜1 ml for every 5 plates: 10 mM NaCl, 20 mM HEPES, 0.22 mM KH2PO4, 1.26 mM CaCl2, 0.81 mM MgSO4, pH 7.4). Protein concentration was measured by the Bradford method (Bradford, 1976) using Bio-Rad Reagent, with bovine serum albumin as a standard. Membranes were held on ice for up to one hour and used fresh, or flash-frozen and stored in liquid nitrogen.
(§3) Membranes were prepared similarly from 293, LM(tk-), and NIH-3T3 cells.
(§4) Membrane suspensions were diluted in binding buffer supplemented with 0.1% bovine serum albumin to yield an optimal membrane protein concentration so that ^125I-PYY (or alternative radioligand such as ^125I-NPY, ^125I-NYY3-36, or ^125I-[Leu^31Pro^34]PYY) bound by membranes in the assay was less than 10% of ^125I-PYY (or alternative radioligand) delivered to the sample (100,000 dpm/sample=0.08 nM for competition binding assays). ^125I-PYY (or alternative radioligand) and peptide competitors were also diluted to desired concentrations in supplemented binding buffer. Individual samples were then prepared in 96-well polypropylene microtiter plates by mixing ^125I-PYY (25 μL) (or alternative radioligand), competing peptides or supplemented binding buffer (25 μL), and finally, membrane suspensions (200 μL). Samples were incubated in a 30° C. water bath with constant shaking for 120 min. Incubations were terminated by filtration over Whatman GF/C filters (pre-coated with 1% polyethyleneimine and air-dried before use), followed by washing with 5 mL of ice-cold binding buffer. Filter-trapped membranes were impregnated with MeltiLex solid scintillant (Wallac, Turku, Finland) and counted for ^125I in a Wallac Beta-Plate Reader. Alternatively, incubations were carried out in GF/C filter plates (pre-coated with 1% polyethyleneimine and air-dried before use), followed by vacuum filtration and three washes of 300 μL of ice-cold binding buffer. 50 μL of UltimaGold (Packard) scintillant were added and counted for ^125I, in a Wallac MicroBeta Trilux. Non-specific binding was defined by 300 nM human NPY for all receptors except the Y4 subtypes; 100 nM human PP was used for the human Y4 and 100 nM rat PP for the rat Y4.

Test [2] addresses T2, human Y1 receptor (Homo sapiens, UniProt P25929).
T2 construct: expressed in transfected cells; host or cells: human embryonic kidney 293 cells, e.g. 293-hY1-5 (ATCC CRL-12121)
T2 sequence (P25929 1-384): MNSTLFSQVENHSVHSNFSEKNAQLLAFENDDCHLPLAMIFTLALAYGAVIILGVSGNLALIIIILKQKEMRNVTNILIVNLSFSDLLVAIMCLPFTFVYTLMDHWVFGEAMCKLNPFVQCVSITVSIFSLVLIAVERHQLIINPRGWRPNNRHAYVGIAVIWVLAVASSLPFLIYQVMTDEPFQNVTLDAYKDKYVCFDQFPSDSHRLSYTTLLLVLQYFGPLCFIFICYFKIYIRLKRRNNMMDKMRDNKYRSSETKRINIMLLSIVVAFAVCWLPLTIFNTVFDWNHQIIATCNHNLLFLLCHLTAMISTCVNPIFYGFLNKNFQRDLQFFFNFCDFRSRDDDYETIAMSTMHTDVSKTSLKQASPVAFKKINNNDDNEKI
The test can be described thus: Radioligand binding to membranes, cloned human Y1 receptor. The settings on record: hNPY-1 (one cell for Y1, Y2, Y4), read-out: Ki, nM hNPY-1,2,4.
Procedure: as §1, §2, §3, §4

Test [3] has as its target T3, human Y4 receptor (Homo sapiens, UniProt P50391).
T3 construct: expressed in transfected cells; host or cells: mouse fibroblast LM(tk-) cells, e.g. L-hY4-3 (ATCC CRL-11779)
The test can be described thus: Radioligand binding to membranes, cloned human Y4 receptor. The conditions noted are these: hNPY-4 (one cell for Y1, Y2, Y4), read-out: Ki, nM hNPY-1,2,4.
Procedure: as §1, §2, §3, §4

In test [4] the target is T4, human Y5 receptor (Homo sapiens, UniProt Q15761).
T4 construct: expressed in transfected cells; host or cells: mouse fibroblast LM(tk-) cells, e.g. L-hY5-7 (ATCC CRL-11995)
T4 sequence (Q15761 1-445): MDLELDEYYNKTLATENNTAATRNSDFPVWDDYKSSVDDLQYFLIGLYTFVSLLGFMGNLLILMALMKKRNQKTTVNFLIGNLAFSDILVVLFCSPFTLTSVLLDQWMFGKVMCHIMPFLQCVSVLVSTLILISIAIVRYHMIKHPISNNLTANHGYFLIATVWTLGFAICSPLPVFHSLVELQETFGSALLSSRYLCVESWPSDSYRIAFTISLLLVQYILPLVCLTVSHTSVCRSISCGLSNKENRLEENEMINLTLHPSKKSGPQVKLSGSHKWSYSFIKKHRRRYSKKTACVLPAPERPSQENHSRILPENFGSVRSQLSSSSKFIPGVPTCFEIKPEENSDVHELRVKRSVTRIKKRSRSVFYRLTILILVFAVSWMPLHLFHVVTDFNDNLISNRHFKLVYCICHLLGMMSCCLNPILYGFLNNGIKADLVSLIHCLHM
In words: Radioligand binding to membranes, cloned human Y5 receptor. The settings on record: read-out: Ki, nM hNPY-5.
Procedure: as §1, §2, §3, §4

Read-outs that look alike come from different tables or passages of the source.

T3 sequence (P50391 whole entry): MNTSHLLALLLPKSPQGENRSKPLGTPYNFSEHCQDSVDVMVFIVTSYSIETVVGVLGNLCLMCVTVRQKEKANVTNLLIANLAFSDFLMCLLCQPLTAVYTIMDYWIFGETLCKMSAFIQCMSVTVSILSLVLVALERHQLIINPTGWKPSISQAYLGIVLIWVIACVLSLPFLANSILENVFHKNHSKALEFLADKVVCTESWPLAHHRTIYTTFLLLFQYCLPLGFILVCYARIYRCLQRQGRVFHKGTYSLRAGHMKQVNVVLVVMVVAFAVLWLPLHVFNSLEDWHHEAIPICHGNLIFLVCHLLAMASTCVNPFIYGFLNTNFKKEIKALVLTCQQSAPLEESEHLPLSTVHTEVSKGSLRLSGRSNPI

For the compound `CCN(CC)S(=O)(=O)NCCCCCNc1nc(-c2ccccn2)cs1` [Example 59, 2-(5-Diethylaminosulfonylamino)pentylamino-4-(2-pyridyl)-thiazole hydrogen chloride], the Ki is over 10 µM in test [1], over 10000 nM in test [2] (Table 5) and over 10000 nM in test [3] (Table 5).
Turning to `O=S(=O)(NCCCCCNc1nc(-c2cccnc2)cs1)c1ccccc1F` [Example 70, 2-(5-(2-Fluorophenyl)sulfonylamino)pentylamino-4-(3-pyridyl)thiazole hydrogen chloride], the inhibition constant (Ki) is over 10 µM in test [1], over 10000 nM in test [2] (Table 5), 21 nM in test [4] (Table 5) and over 10000 nM in test [3] (Table 5).
For the compound `Cc1noc(C)c1S(=O)(=O)NCCCCCNc1nc(-c2cccnc2)cs1` [Example 71, 2-(5-(3,5-Dimethylisoxazol-4-yl)sulfonylamino)pentylamino-4-(3-pyridyl)thiazole hydrogen chloride], the inhibition constant (Ki) is over 10 µM in test [1], over 10000 nM in test [2] (Table 5), 37 nM in test [4] (Table 5) and over 10000 nM in test [3] (Table 5).
On to `COc1ccc(C)cc1S(=O)(=O)NCCCCCNc1nc(-c2cccnc2)cs1` [Example 72, 2-(5-(2-Methoxy-5-methyl)phenylsulfonylamino)pentylamino-4-(3-pyridyl)thiazole hydrogen chloride], for which the Ki was over 10 µM in test [1], over 10000 nM in test [2] (Table 5), 50 nM in test [4] (Table 5) and over 10000 nM in test [3] (Table 5).
On to `O=S(=O)(NCCCCCNc1nc(-c2ccncc2)cs1)c1ccccc1F` [Example 73, 2-(5-(2-Fluoro)phenylsulfonylamino)pentylamino-4-(4-pyridyl)thiazole hydrogen chloride], for which the Ki is over 10 µM in test [1], over 10000 nM in test [2] (Table 5), 204 nM in test [4] (Table 5) and over 10000 nM in test [3] (Table 5).
In the case of `Cc1noc(C)c1S(=O)(=O)NCCCCCNc1nc(-c2ccncc2)cs1` [Example 74, 2-(5-(3,5-Dimethylisoxazol-4-yl)sulfonylamino)pentylamino-4-(4-pyridyl)thiazole hydrogen chloride], the Ki is over 10 µM in test [1], over 10000 nM in test [2] (Table 5), 745 nM in test [4] (Table 5) and over 10000 nM in test [3] (Table 5).
With `COc1ccc(C)cc1S(=O)(=O)NCCCCCNc1nc(-c2ccncc2)cs1` [Example 75, 2-(5-(2-Methoxy-5-methyl)phenylsulfonylamino)pentylamino-4-(4-pyridyl)thiazole hydrogen chloride], the inhibitory constant (Ki) in test [1] is over 10 µM; in test [2] (Table 5), over 10000 nM; in test [4] (Table 5) it was 5 nM; in test [3] (Table 5), over 10000 nM.
Regarding `COc1ccc(C)cc1S(=O)(=O)NCCCCCNc1nc(-c2cc3ccccc3s2)cs1` [Example 76, N1-{5-[(4-Benzo[b]thiophen-2-yl-1,3-thiazol-2-yl)amino]-pentyl}-2-methoxy-5-methyl-1-benzenesulfonamide], the Ki is over 10 µM in test [1], over 10000 nM in test [2] (Table 5), 11 nM in test [4] (Table 5) and over 10000 nM in test [3] (Table 5).
With `COc1ccc(C)cc1S(=O)(=O)NCCCCCNc1nc(-c2sc3ccc(Cl)cc3c2C)cs1` [Example 77, N1-(5-{[4-(5-Chloro-3-methylbenzo[b]thiophen-2-yl)-1,3-thiazol-2-yl]amino}pentyl)-2-methoxy-5-methyl-1-benzenesulfonamide], the Ki in test [1] was over 10 µM; in test [2] (Table 5), over 10000 nM; in test [4] (Table 5), 297 nM; in test [3] (Table 5), over 10000 nM.
For `COc1ccc(C)cc1S(=O)(=O)NCCCCCNc1nc(-c2cc(-c3ccccc3)on2)cs1` [Example 78], the Ki in test [1] is over 10 µM; in test [2] (Table 5) it was over 10000 nM; in test [4] (Table 5), 891 nM; in test [3] (Table 5), over 10000 nM.
`COc1ccc(C)cc1S(=O)(=O)NCCCCCNc1nc(-c2ccsc2)cs1` [Example 79, N1-(5-{[4-(3-Thienyl)-1,3-thiazol-2-yl]amino}pentyl)-2-methoxy-5-methyl-1-benzenesulfonamide]: the Ki in test [1] was over 10 µM; in test [2] (Table 5), over 10000 nM; in test [4] (Table 5), 545 nM; in test [3] (Table 5), over 10000 nM.
With `COc1ccc(C)cc1S(=O)(=O)NCCCCCNc1nc(-c2ccn(S(=O)(=O)c3ccccc3)c2)cs1` [Example 80, N1-[5-({4-[1-(Phenylsulfonyl)-1H-3-pyrrolyl]-1,3-thiazol-2-yl}amino)pentyl]-2-methoxy-5-methyl-1-benzenesulfonamide], the Ki in test [1] is over 10 µM; in test [2] (Table 5), over 10000 nM; in test [4] (Table 5), 40 nM; in test [3] (Table 5) it was over 10000 nM.
On to `O=S(=O)(NC[C@H]1CC[C@H](Nc2nc(-c3cc(-c4ccccc4)no3)cs2)CC1)c1cccc2cccnc12` [Example 81, trans-N8-[(4-{[4-(3-Phenyl-5-isoxazolyl)-1,3-thiazol-2-yl]amino}cyclohexyl)methyl]-8-quinolinesulfonamide], for which the Ki in test [1] was over 10 µM; in test [2] (Table 5), over 10000 nM; in test [4] (Table 5), 155 nM; in test [3] (Table 5), over 10000 nM.
Regarding `CN(C)S(=O)(=O)NCCCCCNc1nc(-c2ccsc2)cs1` [Example 82, N,N-Dimethyl-N′-(5-{[4-(3-Thienyl)-1,3-thiazol-2-yl]amino}pentyl)sulfamide], the Ki is over 10 µM in test [1], over 10000 nM in test [2] (Table 5), 8.3 nM in test [4] (Table 5) and over 10000 nM in test [3] (Table 5).
Take `O=S(=O)(NCCCCCCNc1nc2c(s1)CCSc1ccccc1-2)c1cccs1` [Example 106]: the Ki in test [1] is over 10 µM; in test [2] (Table 6), over 10000 nM; in test [4] (Table 6), 2.9 nM; in test [3] (Table 6), over 10000 nM.
Regarding `O=S(=O)(NC[C@H]1CC[C@H](Nc2nc3c(s2)CCSc2ccccc2-3)CC1)c1ccc(F)cc1` [Example 155, N1-{[4-(4,5-Dihydrobenzo[2,3]thiepino[4,5-d][1,3]thiazol-2-ylamino)cyclohexyl]methyl}-4-fluoro-1-benzenesulfonamide], the inhibition constant Ki in test [4] (Table 6) came out at 9.1 nM.
Same read-out and setting: in the case of `Cc1ccc(S(=O)(=O)NC[C@H]2CC[C@H](Nc3nc4c(s3)CCSc3ccccc3-4)CC2)cc1` [Example 156, N1-{[4-(4,5-Dihydrobenzo[2,3]thiepino[4,5-d][1,3]thiazol-2-ylamino)cyclohexyl]methyl}-4-methyl-1-benzenesulfonamide] it was 6.6 nM.
Consider `COCCN(C=O)[C@H]1CC[C@H](CNc2nc3c(s2)CCSc2ccccc2-3)CC1` [Example 163, trans-N-4-[(4,5-dihydrobenzo[2,3]thiepino[4,5-d][1,3]thiazol-2-ylamino)methyl]cyclohexyl-N-(2-methoxyethyl)formamide], for which the Ki in test [4] (Table 6) is 12.3 nM.
The same measure, in the same setting: in the case of `COCCN(C=O)[C@H]1CC[C@H](CNc2nc3c(s2)CCSc2ccc(F)cc2-3)CC1` [Example 164, trans-N-(4-[(9-Fluoro-4,5-dihydrobenzo[2,3]thiepino-[4,5-d][1,3]thiazol-2-yl)amino]methylcyclohexyl)-N-(2-methoxyethyl)formamide] it was 13 nM.
With `CC(C)N(C=O)[C@H]1CC[C@H](CNc2nc3c(s2)CCSc2ccccc2-3)CC1` [Example 165, trans-N-4-[(4,5-Dihydrobenzo[2,3]thiepino[4,5-d][1,3]thiazol-2-ylamino)methyl]cyclohexyl-N-isopropylformamide], the Ki in test [4] (Table 6) came to 4.8 nM.
For the compound `CC(C)N(C=O)[C@H]1CC[C@H](CNc2nc3c(s2)CCSc2ccc(F)cc2-3)CC1` [Example 166, N-(4-[(9-Fluoro-4,5-dihydrobenzo[2,3]thiepino[4,5-d][1,3]thiazol-2-yl)amino]methylcyclohexyl)-N-isopropylformamide], the Ki in test [4] (Table 6) came out at 6 nM.
